Non-standard residues stand in square brackets, D forms with d. Residues, ends and D or L forms follow the SMILES beside them. ξ: configuration not given here. ξBip(2'-Et-4'-OMe) = CCc1cc(OC)ccc1-c1ccc(CC(N)C(=O)O)cc1; ξNva(5-(3,5-Me2-Ph)) = Cc1cc(C)cc(CCCC(N)C(=O)O)c1; ξNva(5-(3-Cl-Ph)) = NC(CCCc1cccc(Cl)c1)C(=O)O; Aib = CC(C)(N)C(=O)O

Among the data in patent US8883963B2 (Cadila Healthcare Limited, priority 2007, dated 2014) are blood glucose levels values, retold here.

The test system of experiment [1] is C57BL/6J mice (mild hyperglycemic). Put plainly: In vivo glucose reduction, acute single dose 120-min time-course, i.p. route. The arrangement: species or system mouse; unit not given here. The note with it: male C57BL/6J mice. As to the method: All the animal experiments were carried out according to the internationally valid guidelines following approval by the ‘Zydus Research Center animal ethical committee’.
Two days prior to the study, the animals were randomised and divided into 5 groups (n=6), based upon their fed glucose levels. On the day of experiment, food was withdrawn from all the cages, water was given ad-libitum and were kept for overnight fasting. Vehicle (normal saline)/test/standard compounds were administered intraperitoneally (i.p.) or orally, on a body weight basis.
(§1) Blood samples were centrifuged and the separated serum was immediately subjected for the glucose estimation. Serum for insulin estimation was stored at −70° C. until used for the insulin estimation. The glucose estimation was carried out with DPEC-GOD/POD method (Ranbaxy Fine Chemicals Limited, Diagnostic division, India), using Spectramax-190, in 96-microwell plate reader (Molecular devices Corporation, Sunnyvale, Calif.). […] The AUC and BCAUC obtained from graphs were analyzed for one way ANOVA, followed by Dunnett's post test, using Graph Pad prism software. Furthermore, the insulin estimation was carried out using rat/mouse insulin ELISA kit (Linco research, Missouri USA).

Experiment [2] has the same test system. Put plainly: In vivo glucose reduction, acute single dose 120-min time-course, oral route. The arrangement: species or system mouse; unit not given here. The note with it: male C57BL/6J mice. The method, then: Acute single dose 120-min time-course experiments were carried out in male C57BL/6J or db/db mice, age 8-12 weeks, bred in-house. Animals were housed in groups of 6 animals per cage, for a week, in order to habituate them to vivarium conditions (25±4° C., 60-65% relative humidity, 12:12 h light:dark cycle, with lights on at 7.30 am). All the animal experiments were carried out according to the internationally valid guidelines following approval by the ‘Zydus Research Center animal ethical committee’.
Two days prior to the study, the animals were randomised and divided into 5 groups (n=6), based upon their fed glucose levels. On the day of experiment, food was withdrawn from all the cages, water was given ad-libitum and were kept for overnight fasting. Vehicle (normal saline)/test/standard compounds were administered intraperitoneally (i.p.) or orally, on a body weight basis. Soon after the 0 min. blood collection from each animal, the subsequent blood collections were done at 30, 60 and 120 or up to 240 min., via retro-orbital route, under light ether anesthesia (Chen, D., et al., Diabetes Obesity Metabolism, 2005, 7, 307. Kim, J. G. et al., Diabetes, 2003, 52, 751).
as §1, with “USA). Changes in the blood glucose levels, at 0, 30, 60 and 120 min, with selected peptidomimetics are shown in Table 7 (via ip route of administration) and Table 8 (via oral route of administration) respectively.” for “USA).”

As to `CCc1cc(OC)ccc1-c1ccc(CC(NC(=O)[C@H](CC(=O)O)NC(=O)[C@H](CO)NC(=O)[C@@H](NC(=O)C(C)(Cc2ccccc2F)NC(=O)[C@@H](NC(=O)CNC(=O)C(CCC#N)NC(=O)C(C)(C)NC(=O)[C@@H](N)Cc2c[nH]cn2)[C@H](C)O)[C@H](C)O)C(=O)NC(CCCc2ccccc2F)C(N)=O)cc1` (single isomer, unassigned) [Seq. ID. 116], the blood glucose levels in experiment [1] (50 nM/kg i.p., 0 min) amounted to 184 ± 5.0; in experiment [1] (50 nM/kg i.p., 30 min) it was 122 ± 3.8; in experiment [1] (50 nM/kg i.p., 60 min), 128 ± 2.1; in experiment [1] (50 nM/kg i.p., 120 min) it was 149 ± 2.3; in experiment [2] (2 μM/kg oral, 0 min) it was 185 ± 2.1; in experiment [2] (2 μM/kg oral, 30 min), 115 ± 2.8. Moreover, the blood glucose levels in experiment [2] (2 μM/kg oral, 60 min) was 112 ± 4.9; in experiment [2] (2 μM/kg oral, 120 min), 111 ± 2.2.
With `CCc1cc(OC)ccc1-c1ccc(CC(NC(=O)[C@H](CC(=O)O)NC(=O)[C@H](CO)NC(=O)[C@@H](NC(=O)[C@H](Cc2ccccc2)NC(=O)[C@@H](NC(=O)CNC(=O)[C@H](CCC(N)=O)NC(=O)C(C)(C)NC(=O)[C@@H](N)Cc2c[nH]cn2)[C@@H](C)O)[C@@H](C)O)C(=O)NC(CCCc2cc(C)cc(C)c2)C(N)=O)cc1` (stereo partly shown) [Seq. ID. 18] (H-H[Aib]QGTFTSD[ξBip(2'-Et-4'-OMe)][ξNva(5-(3,5-Me2-Ph))]-NH2), the blood glucose levels in experiment [1] (30 nM/kg i.p., 0 min) is reported as 183 ± 3.6; in experiment [1] (30 nM/kg i.p., 30 min) it was 118 ± 3.3; in experiment [1] (30 nM/kg i.p., 60 min) it was 116 ± 3.2; in experiment [1] (30 nM/kg i.p., 120 min) it was 117 ± 1.9; in experiment [2] (2 μM/kg oral, 0 min) it was 185 ± 2.3; in experiment [2] (2 μM/kg oral, 30 min), 115 ± 3.8. Also, the blood glucose levels in experiment [2] (2 μM/kg oral, 60 min) is 113 ± 4.9; in experiment [2] (2 μM/kg oral, 120 min) it was 109 ± 2.2.
Regarding `CCc1cc(OC)ccc1-c1ccc(CC(NC(=O)[C@H](CC(=O)O)NC(=O)[C@H](CO)NC(=O)[C@@H](NC(=O)[C@H](Cc2ccccc2)NC(=O)[C@@H](NC(=O)CNC(=O)C(CCC#N)NC(=O)C(C)(C)NC(=O)[C@@H](N)Cc2c[nH]cn2)[C@@H](C)O)[C@@H](C)O)C(=O)NC(CCCc2ccccc2)C(N)=O)cc1` (single isomer, unassigned) [Seq. ID. 29], the blood glucose levels in experiment [1] (30 nM/kg i.p., 0 min) was 180 ± 1.2; in experiment [1] (30 nM/kg i.p., 30 min) it was 116 ± 3.2; in experiment [1] (30 nM/kg i.p., 60 min), 116 ± 3.1; in experiment [1] (30 nM/kg i.p., 120 min), 118 ± 1.8; in experiment [2] (2 μM/kg oral, 0 min) it was 184 ± 2.5; in experiment [2] (2 μM/kg oral, 30 min), 118 ± 3.6. For the same compound, the blood glucose levels in experiment [2] (2 μM/kg oral, 60 min) amounted to 113 ± 4.2; in experiment [2] (2 μM/kg oral, 120 min), 110 ± 2.4.
For `CCc1cc(OC)ccc1-c1ccc(CC(NC(=O)[C@H](CC(=O)O)NC(=O)[C@H](CO)NC(=O)[C@@H](NC(=O)[C@H](Cc2ccccc2)NC(=O)[C@@H](NC(=O)CNC(=O)C(CCC#N)NC(=O)C(C)(C)NC(=O)[C@@H](N)Cc2c[nH]cn2)[C@@H](C)O)[C@@H](C)O)C(=O)NC(CCCc2ccc(F)cc2C(F)(F)F)C(N)=O)cc1` (single isomer, unassigned) [Seq. ID. 80], the blood glucose levels in experiment [1] (10 nM/kg i.p., 0 min) was found to be 183 ± 2.2; in experiment [1] (10 nM/kg i.p., 30 min) it was 113 ± 2.8; in experiment [1] (10 nM/kg i.p., 60 min) it was 113 ± 2.9; in experiment [1] (10 nM/kg i.p., 120 min), 114 ± 2.0; in experiment [2] (0.5 μM/kg oral, 0 min), 184 ± 2.5; in experiment [2] (0.5 μM/kg oral, 30 min) it was 115 ± 3.6. Also, the blood glucose levels is given as 113 ± 4.2 in experiment [2] (0.5 μM/kg oral, 60 min) and 110 ± 2.4 in experiment [2] (0.5 μM/kg oral, 120 min).
`CCc1cc(OC)ccc1-c1ccc(CC(C(=O)N(C)C(CCCc2ccccc2)C(N)=O)N(C)C(=O)[C@H](CC(=O)O)N(C)C(=O)[C@H](CO)NC(=O)[C@@H](NC(=O)C(C)(Cc2ccccc2F)NC(=O)[C@@H](NC(=O)CNC(=O)C(CCC#N)NC(=O)C(C)(C)NC(=O)[C@@H](N)Cc2c[nH]cn2)[C@H](C)O)[C@H](C)O)cc1` (single isomer, unassigned) [Seq. ID. 154]: the blood glucose levels in experiment [1] (30 nM/kg i.p., 0 min) worked out at 181 ± 4.1; in experiment [1] (30 nM/kg i.p., 30 min) it was 117 ± 3.8; in experiment [1] (30 nM/kg i.p., 60 min), 117 ± 3.0; in experiment [1] (30 nM/kg i.p., 120 min), 117 ± 1.6; in experiment [2] (2 μM/kg oral, 0 min) it was 181 ± 2.5; in experiment [2] (2 μM/kg oral, 30 min), 117 ± 3.3. For the same compound, the blood glucose levels in experiment [2] (2 μM/kg oral, 60 min) turned out to be 112 ± 4.0; in experiment [2] (2 μM/kg oral, 120 min), 108 ± 2.9.
Regarding `CCc1cc(OC)ccc1-c1ccc(CC(NC(=O)[C@H](CC(=O)O)NC(=O)[C@H](CO)NC(=O)[C@@H](NC(=O)[C@H](Cc2ccccc2)NC(=O)[C@@H](NC(=O)CNC(=O)[C@H](CCC(N)=O)NC(=O)[C@H](C)NC(=O)[C@@H](N)Cc2c[nH]cn2)[C@@H](C)O)[C@@H](C)O)C(=O)NC(CCCc2cccc(Cl)c2)C(N)=O)cc1` (stereo partly shown) [Seq. ID. 15] (H-HAQGTFTSD[ξBip(2'-Et-4'-OMe)][ξNva(5-(3-Cl-Ph))]-NH2), the blood glucose levels in experiment [1] (30 nM/kg i.p., 0 min) stood at 180 ± 3.2; in experiment [1] (30 nM/kg i.p., 30 min), 119 ± 3.2; in experiment [1] (30 nM/kg i.p., 60 min), 117 ± 3.1; in experiment [1] (30 nM/kg i.p., 120 min) it was 118 ± 1.8; in experiment [2] (2 μM/kg oral, 0 min) it was 183 ± 2.4; in experiment [2] (2 μM/kg oral, 30 min) it was 116 ± 3.1. The blood glucose levels is on record as 112 ± 4.8 in experiment [2] (2 μM/kg oral, 60 min) and 110 ± 2.5 in experiment [2] (2 μM/kg oral, 120 min).
As for `CCc1cc(OC)ccc1-c1ccc(CC(NC(=O)[C@H](CC(=O)O)NC(=O)[C@H](CO)NC(=O)[C@@H](NC(=O)[C@H](Cc2ccccc2)NC(=O)[C@@H](NC(=O)CNC(=O)C(CCC#N)NC(=O)C(C)(C)NC(=O)[C@@H](N)Cc2c[nH]cn2)[C@@H](C)O)[C@@H](C)O)C(=O)NC(CCCc2ccc(OC)cc2Cl)C(N)=O)cc1` (single isomer, unassigned) [Seq. ID. 84], the blood glucose levels is recorded as 182 ± 2.3 in experiment [1] (10 nM/kg i.p., 0 min); 110 ± 2.3 in experiment [1] (10 nM/kg i.p., 30 min); 112 ± 3.0 in experiment [1] (10 nM/kg i.p., 60 min); 112 ± 1.9 in experiment [1] (10 nM/kg i.p., 120 min); 183 ± 2.4 in experiment [2] (2 μM/kg oral, 0 min); 116 ± 3.1 in experiment [2] (2 μM/kg oral, 30 min). Further, the blood glucose levels came to 112 ± 4.8 in experiment [2] (2 μM/kg oral, 60 min) and 110 ± 2.5 in experiment [2] (2 μM/kg oral, 120 min).
As for `CCc1cc(OC)ccc1-c1ccc(CC(NC(=O)[C@H](CC(=O)O)NC(=O)[C@H](CO)NC(=O)[C@@H](NC(=O)C(C)(Cc2ccccc2F)NC(=O)[C@@H](NC(=O)CNC(=O)[C@H](CC(C(F)(F)F)C(F)(F)F)NC(=O)C(C)(C)NC(=O)[C@@H](N)Cc2c[nH]cn2)[C@@H](C)O)[C@H](C)O)C(=O)NC(CCCc2ccccc2)C(N)=O)cc1` (single isomer, unassigned) [Seq. ID. 225], the blood glucose levels was 184 ± 5.0 in experiment [1] (10 nM/kg i.p., 0 min); 122 ± 3.8 in experiment [1] (10 nM/kg i.p., 30 min); 128 ± 2.1 in experiment [1] (10 nM/kg i.p., 60 min); 149 ± 2.3 in experiment [1] (10 nM/kg i.p., 120 min); 183 ± 2.3 in experiment [2] (2 μM/kg oral, 0 min); 119 ± 3.0 in experiment [2] (2 μM/kg oral, 30 min). The blood glucose levels in experiment [2] (2 μM/kg oral, 60 min) is 112 ± 4.3; in experiment [2] (2 μM/kg oral, 120 min) it was 109 ± 2.6.
